In ChEMBL document CHEMBL4482308, “Ghrelin o-acyltransferase inhibitors” (2017):
The source made the active and inactive calls. No cut-off for these calls is given here.

Legend:
[1] = Cytotoxicity in HEK293FT cells co-expressing mouse GOAT and pre-proghrelin assessed as reduction in cell viability incubated for 24 hrs by alamar blue assay; format: cell-based; conditions: human, read-out: LD50
[2] = biological target: T1, Membrane-bound ghrelin O-acyltransferase MBOAT4 (Mus musculus) (UniProt P0C7A3); experiment: Inhibition of mouse GOAT expressed in HEK293FT cells co-expressing pre-proghrelin assessed as reduction in ghrelin octanoylation up to 1 uM incubated for 24 hrs by ELISA; format: cell-based
T1 sequence (whole entry): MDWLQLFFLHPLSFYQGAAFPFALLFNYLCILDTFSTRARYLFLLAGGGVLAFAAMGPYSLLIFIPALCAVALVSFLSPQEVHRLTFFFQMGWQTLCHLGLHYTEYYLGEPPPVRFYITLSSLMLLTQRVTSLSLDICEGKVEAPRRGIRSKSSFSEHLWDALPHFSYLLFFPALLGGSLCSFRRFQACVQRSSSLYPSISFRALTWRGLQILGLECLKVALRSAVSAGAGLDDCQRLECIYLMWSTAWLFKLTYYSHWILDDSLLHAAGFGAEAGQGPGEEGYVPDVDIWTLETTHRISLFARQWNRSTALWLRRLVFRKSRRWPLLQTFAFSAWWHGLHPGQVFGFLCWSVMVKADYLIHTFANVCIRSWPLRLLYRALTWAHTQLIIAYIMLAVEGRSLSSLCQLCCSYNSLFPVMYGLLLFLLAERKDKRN

Row | Structure (SMILES) | CC50 at 24 h [1] [µM] | inhibition [2]
1 | CCNC(=O)[C@]12CCC(C)(C)C[C@H]1[C@H]1C(=O)C=C3[C@@]4(C)C=C(C#N)C(=O)C(C)(C)[C@@H]4CC[C@@]3(C)[C@]1(C)CC2 | ≥ 10 | –
2 | CC1(C)CC[C@]2(C(=O)O)CC[C@]3(C)[C@H](C(=O)C=C4[C@@]5(C)C=C(C#N)C(=O)C(C)(C)[C@@H]5CC[C@]43C)[C@@H]2C1 | – | inactive
3 | COC(=O)[C@]12CCC(C)(C)C[C@H]1[C@H]1C(=O)C=C3[C@@]4(C)C=C(C#N)C(=O)C(C)(C)[C@@H]4CC[C@@]3(C)[C@]1(C)CC2 [BARDOXOLONE METHYL] | ≥ 10 | –
